Source: article PMC9139161, “Phenolics from Chrozophora oblongifolia Aerial Parts as Inhibitors of α-Glucosidases and Advanced Glycation End Products: In-Vitro Assessment, Molecular Docking and Dynamics Studies” (Biology, 2022)

How the values were obtained:
[1] = test system: advanced glycation end products (AGEs) formation, BSA-fructose model; assay: AGEs formation inhibition, BSA-fructose assay; assay type: biochemical; settings: AGEs fluorescence, 72 h, 37 °C; read-out: BSA-Fructose Model IC50 (Mean ± SE)
Procedure: (§1) The isolated compounds were prepared at final concentrations of 500 µM in DMSO in the BSA-fructose assay, and 1000 µM in all other AGEs assays. Compounds that exceeded 50% inhibition at this concentration were serially diluted to determine their IC50. All tests were conducted using quercetin (positive control).
According to the previous report, the inhibition test for AGE formation was assessed using the BSA-fructose model. Briefly, BSA (50 mg/mL) and fructose (1.25 M) (in 200 mM phosphate buffer, pH 7.4, with 0.02% sodium azide) were incubated with Sample/blank in the dark for 72 h at 37 °C, (1:1:1 by volume). On a microplate reader (Fluostar Omega BMG Labtech, Ortenberg, Germany), fluorescent AGEs were detected using excitation and emission wavelengths of 355 nm and 460 nm, respectively. Triplicates of all experiments were performed, and the percentage of AGEs inhibition was calculated.

[2] = test system: advanced glycation end products (AGEs) formation, arginine-methylglyoxal model; assay: AGEs formation inhibition, arginine-methylglyoxal assay; assay type: biochemical; settings: AGEs fluorescence, 72 h, 37 °C; read-out: Arginine-Methylglyoxal Model IC50 (Mean ± SE)
Procedure: as §1
The determination of the inhibitory effect of the isolated compounds on the formation of AGEs in the arginine methylglyoxal model was used as described previously with slight modification. Briefly, in black 96-microwell plates, a sample was incubated for 72 h at 37 °C in the dark with methylglyoxal (53.3 mM, in distilled water) and 106.6 mM arginine (in 200 mM phosphate buffer, pH 7.4, with 0.02% sodium azide), (1:1:1 v/v/v). On a microplate reader (Fluostar Omega/BMG Labtech/Germany), fluorescent AGEs were detected using excitation and emission wavelengths of 355 nm and 460 nm, respectively. Triplicates of all experiments were performed.

[3] = test system: advanced glycation end products (AGEs) formation, BSA-methylglyoxal model; assay: AGEs formation inhibition, BSA-methylglyoxal assay; assay type: biochemical; settings: AGEs fluorescence, 72 h, 37 °C; read-out: BSA-Methylglyoxal Model IC50 (Mean ± SE)
Procedure: as §1
AGEs inhibitory activity of the isolated compounds was determined according to the reported procedures with slight modification. Briefly, in black 96-microwell plates, samples were incubated for 72 h at 37 °C in the dark with bovine serum albumin (BSA, 50 mg/mL) (in 200 mM phosphate buffer, pH 7.4, with 0.02% sodium azide) and methyl-glyoxal (53.3 mM, in distilled water), (1:1:1 v/v/v). On a microplate reader (Fluostar Omega/BMG Labtech/Germany), fluorescent AGEs were detected using excitation and emission wavelengths of 355 nm and 460 nm, respectively. Triplicates of all experiments were performed.

DPPH assay = settings: read-out: DPPH assay IC50 (Mean ± SE)
Procedure: Isolated compounds were prepared in final concentrations of 1000 µM in DMSO. Compounds that exceeded 50% inhibition at this concentration were serially diluted to determine their IC50. Ascorbic acid was used as a positive control, prepared in a concentration of 100 µM in water from which six concentrations were prepared to calculate its IC50. The method is based on the reduction of free radical of 2,2-diphenyl-1-picrylhydrazyl (DPPH). Briefly, in a 96-well plate, 20 μL of the isolated compound was incubated for 20 min in the absence of light with 180 μL of DPPH reagent (100 μM). The reduction of intensity in the color of DPPH was assessed on a microplate reader (TECAN, Männedorf, Switzerland) at 540 nm (Supplementary Table S2).

ABTS assay = settings: concentration-response curve
Procedure: DMSO was used for the preparation of 0.5 mg/mL concentrations of isolated compounds, meanwhile, the positive control (ascorbic acid) was used to prepare a stock solution of 1000 µM in water; from which seven concentrations were prepared including 7.812, 15.625, 31.25, 62.5, 125, 250 and 500 µM to construct the concentration-response curve (Supplementary Data Figure S2). The activity of the tested compounds to scavenge the free radicals of ABTS (2,2′-azino-bis (3-ethylbenzothiazoline-6-sulfonic acid)) was assessed according to the methodology reported previously with slight modifications.
Five milliliters of aqueous solution (7 mM) of ABTS was mixed with 88 µL potassium persulfate (140 mM) and the mixture was kept in the dark for 16 h to produce ABTS radical cation (ABTS^•+). Then methanol was added to the reaction mixture to dilute the formed ABTS^•+ solution to an absorbance of 0.700 (1:50) at 690 nm.
Ten microliters of the tested compound were incubated with 190 μL of ABTS^•+ solution in a 96-well plate for thirty minutes in the dark and the absorbance was measured later using a microplate reader (TECAN, Männedorf, Switzerland) at 690 nm. Data are represented as means (n = 3) ± SD and the antioxidant effect of the tested compounds was calculated as µM Ascorbic acid equivalents by substitution in the linear regression equation (Supplementary Figure S2).

[4] = Metal chelation assay (ferrozine); settings: concentration-response curve
Procedure: Isolated compounds were dissolved in DMSO to prepare a concentration of 0.5 mg/mL, meanwhile, the positive control (EDTA) was used to prepare a stock solution of 100 µM in water; from which six concentrations were prepared including 5, 10, 20, 40, 50 and 80 µM to construct the dose-response curve. The assay was carried out as previously reported, with minor modifications. Briefly, in 96 wells plate (n = 6) 20 µL of the freshly prepared ferrous sulfate (0.3 mM) was mixed with 50 µL of the tested compound and incubated with 30 µL of ferrozine (0.8 mM) for 10 min at room temperature. Finally, reduction in color intensity was assessed at 540 nm using a microplate reader (Tecan, San Jose, CA, USA). Data are represented as means (n = 3) ± SD and the antioxidant effect of the extracts was calculated as µM EDTA equivalents by substitution in the linear regression equation (Supplementary Figure S4).

## O=c1c(O)c(-c2ccc(O)c(O)c2)oc2cc(O)cc(O)c12 [Quercetin, quercetin, reference compound]
[1]
  IC50: 62 µM
[2]
  IC50: 536 µM
[3]
  IC50: 941 µM

## O=C1O[C@H]([C@@H](O)CO)C(O)=C1O [ascorbic acid, Ascorbic acid]
DPPH assay
  IC50: 28 µM
ABTS assay; 7.8125 µM
  ABTS % inhibition: 2.8930%
ABTS assay; 15.625 µM
  ABTS % inhibition: 3.7803%
ABTS assay; 31.25 µM
  ABTS % inhibition: 5.5156%
ABTS assay; 62.5 µM
  ABTS % inhibition: 9.7291%
ABTS assay; 125 µM
  ABTS % inhibition: 16.88%
ABTS assay; 250 µM
  ABTS % inhibition: 33.5451%
ABTS assay; 500 µM
  ABTS % inhibition: 62.86%

## O=C(O)CN(CCN(CC(=O)O)CC(=O)O)CC(=O)O [EDTA, reference compound]
[4]; 5 µM
  Metal chelation % inhibition: 8.429%
[4]; 10 µM
  Metal chelation % inhibition: 13.464%
[4]; 20 µM
  Metal chelation % inhibition: 19.624%
[4]; 40 µM
  Metal chelation % inhibition: 41.866%
[4]; 50 µM
  Metal chelation % inhibition: 48.303%
[4]; 80 µM
  Metal chelation % inhibition: 72.307%
